The values that follow come from patent US9670227B2, “Thienopyrimidine derivatives, a process for their preparation and pharmaceutical compositions containing them” (LES LABORATOIRES SERVIER, priority 2013, dated 2017).

One assay has as its target Mcl-1 protein (UniProtKB primary accession number: Q07820) (Homo sapiens, UniProt Q07820). Put plainly: Inhibition of Mcl-1 by fluorescence polarisation, Method 1. It is filed as binding. To be noted: fluorescence polarisation test; Method 2 values are underlined in the patent (underlining not visible here); read-out: IC50 (M) Mcl-1 FP. An outline of the steps:
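Fluorescence polarisation competition with an 11-point compound dilution series (final DMSO 5%). Mcl-1 protein at 5 nM and fluorescein-labelled ligand at 1 nM (final) in 10 mM HEPES, 150 mM NaCl, 0.05% Tween 20, pH 7.4.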
Background: Fluorescence polarisation rises when a labelled molecule tumbles more slowly, as on binding a larger partner.

Assay [1] relates to H929 multiple myeloma tumour line. Put plainly: In vitro cytotoxicity, Microculture Tetrazolium Assay. It is filed as cell-based. To be noted: Homo sapiens, NCI-H929, 48 h, H929 cells, 48 hours exposure, MTT; read-out: IC50 (μM) MTT H929. How it is done: The cytotoxicity studies were carried out on the H929 multiple myeloma tumour line.
The cells are distributed onto microplates and exposed to the test compounds for 48 hours.

The structures appear in SMILES notation.

Chain of Mcl-1 protein (Q07820 whole entry): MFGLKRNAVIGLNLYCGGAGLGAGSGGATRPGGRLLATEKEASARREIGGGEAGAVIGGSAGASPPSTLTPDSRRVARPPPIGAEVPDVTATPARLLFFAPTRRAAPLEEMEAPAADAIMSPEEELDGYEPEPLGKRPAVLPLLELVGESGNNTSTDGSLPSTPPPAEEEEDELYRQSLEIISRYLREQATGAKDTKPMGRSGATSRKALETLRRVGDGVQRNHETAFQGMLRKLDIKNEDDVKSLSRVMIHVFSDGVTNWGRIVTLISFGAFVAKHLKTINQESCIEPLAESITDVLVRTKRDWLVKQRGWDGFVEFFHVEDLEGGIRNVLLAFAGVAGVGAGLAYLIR

One may read the IC50 as the concentration that inhibits the measured activity by half. `Cc1c(-c2c(-c3ccc(F)cc3)sc3ncnc(OC(Cc4ccccc4OCc4ccnn4CCN(C)C)C(=O)O)c23)ccc(OCCN2CCN(C)CC2)c1Cl` [Example 87, (2R)-2-{[(5Sa)-5-{3-chloro-2-methyl-4-[2-(4-methylpiperazin-1-yl)ethoxy]phenyl}-6-(4-fluorophenyl)thieno[2,3-d]pyrimidin-4-yl]oxy}-3-[2-({1-[2-(dimethylamino)ethyl]-1H-pyrazol-5-yl}methoxy)phenyl]propanoic acid]: the IC50 was 7e-09 M on Mcl-1 protein and 0.274 µM in assay [1].

Take `COCCn1nccc1COc1ccccc1CC(Oc1ncnc2sc(-c3ccc(F)cc3)c(-c3ccc(OCCN4CCN(C)CC4)c(Cl)c3C)c12)C(=O)O` [Example 88, (2R)-2-{[(5Sa)-5-{3-chloro-2-methyl-4-[2-(4-methylpiperazin-1-yl)ethoxy]phenyl}-6-(4-fluorophenyl)thieno[2,3-d]pyrimidin-4-yl]oxy}-3-(2-{[1-(2-methoxyethyl)-1H-pyrazol-5-yl]methoxy}phenyl)propanoic acid]: the half-inhibitory concentration (IC50) at Mcl-1 protein came to 4.2e-09 M; in assay [1], 0.062 µM.

Turning to `CCOCCn1nccc1COc1ccccc1CC(Oc1ncnc2sc(-c3ccc(F)cc3)c(-c3ccc(OCCN4CCN(C)CC4)c(Cl)c3C)c12)C(=O)O` [Example 89, (2R)-2-{[(5Sa)-5-{3-chloro-2-methyl-4-[2-(4-methylpiperazin-1-yl)ethoxy]phenyl}-6-(4-fluorophenyl)thieno[2,3-d]pyrimidin-4-yl]oxy}-3-(2-{[1-(2-ethoxyethyl)-1H-pyrazol-5-yl]methoxy}phenyl)propanoic acid], the IC50 was 6.5e-09 M on Mcl-1 protein and 0.027 µM in assay [1].

`COCCOCCn1nccc1COc1ccccc1CC(Oc1ncnc2sc(-c3ccc(F)cc3)c(-c3ccc(OCCN4CCN(C)CC4)c(Cl)c3C)c12)C(=O)O` [Example 90, (2R)-2-{[(5Sa)-5-{3-chloro-2-methyl-4-[2-(4-methylpiperazin-1-yl)ethoxy]phenyl}-6-(4-fluorophenyl)thieno[2,3-d]pyrimidin-4-yl]oxy}-3-[2-({1-[2-(2-methoxyethoxy)ethyl]-1H-pyrazol-5-yl}methoxy)phenyl]propanoic acid]: the IC50 at Mcl-1 protein was 3.2e-09 M; in assay [1] it was 0.058 µM.

For `Cc1c(-c2c(-c3ccc(F)cc3)sc3ncnc(OC(Cc4ccccc4OCc4cncnc4)C(=O)O)c23)ccc(OCCN2CCN(C)CC2)c1Cl` [Example 93, (2R)-2-{[(5Sa)-5-{3-chloro-2-methyl-4-[2-(4-methylpiperazin-1-yl)ethoxy]phenyl}-6-(4-fluorophenyl)thieno[2,3-d]pyrimidin-4-yl]oxy}-3-[2-(pyrimidin-5-ylmethoxy)phenyl]propanoic acid], the values for the concentration for half-maximal inhibition (IC50) (on Mcl-1 protein; in assay [1]) were 1.4e-08 M and 0.087 µM, respectively.

Turning to `Cc1c(-c2c(-c3ccc(F)cc3)sc3ncnc(OC(Cc4ccccc4OCc4cnnn4-c4ccccc4)C(=O)O)c23)ccc(OCCN2CCN(C)CC2)c1Cl` [Example 94, (2R)-2-{[(5Sa)-5-{3-chloro-2-methyl-4-[2-(4-methylpiperazin-1-yl)ethoxy]phenyl}-6-(4-fluorophenyl)thieno[2,3-d]pyrimidin-4-yl]oxy}-3-{2-[(1-phenyl-1H-1,2,3-triazol-5-yl)methoxy]phenyl}propanoic acid], the half-maximal inhibitory concentration (IC50) on Mcl-1 protein came out at 1.9e-09 M; in assay [1], 0.085 µM.

Regarding `COCCCn1nncc1COc1ccccc1CC(Oc1ncnc2sc(-c3ccc(F)cc3)c(-c3ccc(OCCN4CCN(C)CC4)c(Cl)c3C)c12)C(=O)O` [Example 96, (2R)-2-{[(5Sa)-5-{3-chloro-2-methyl-4-[2-(4-methylpiperazin-1-yl)ethoxy]phenyl}-6-(4-fluorophenyl)thieno[2,3-d]pyrimidin-4-yl]oxy}-3-(2-{[1-(3-methoxypropyl)-1H-1,2,3-triazol-5-yl]methoxy}phenyl)propanoic acid], the figures for the IC50 (at Mcl-1 protein; in assay [1]) were 3.8e-09 M and 0.034 µM, respectively.
